# Columns and labels:
# human TDO2 [1] = target: T1, human TDO2 (Homo sapiens, UniProt P48775); assay: Assay for TDO2 enzymatic activity determination; format: biochemical; design: made in house; conditions: human recombinant TDO2, L-Trp 1 mM, room temperature, one hour, kynurenine absorbance at 480 nm
# Experimental: To measure the TDO2 activity, the reaction mixture contained (final concentrations) potassium phosphate buffer (50 mM, pH 7.5), ascorbic acid (0.25 M), methylene blue (0.125 μM), catalase (40 units/mL, from bovine liver, Sigma), and human recombinant TDO2 enzyme (prepared as described in Dolusic et al. J. Med. Chem.; 2011, 54, 5320-5334; 0.9 μg) without or with the compounds of the present invention at the indicated concentrations (total volume 112.5 μL). The reaction was initiated by the addition of 37.5 μL of L-Trp (final concentration 1 mM) at room temperature. The reaction was conducted at room temperature during one hour and stopped by the addition of 30 μL of 30% (w/v) trichloroacetic acid.
# To convert N-formylkynurenine into kynurenine, the reaction mixture was incubated at 65° C. for 30 min. Then 150 μL of the reaction mixture was mixed with 120 μL of 2.5% (w/v) 4-(dimethylamino)-benzaldehyde in acetic acid and incubated for 5 min at room temperature. Kynurenine concentrations were determined by measuring the absorbance at 480 nm. A standard curve was made with pure kynurenine. The TDO activity was measured as described above using ten serial concentrations of the compounds of the present invention. Data were fitted using the Prism software (GraphPad Software, Inc.).
# human TDO2 [2] = target: T1, human TDO2; assay: Cellular assay for TDO2 activity, hTDO2-overexpressing P815 cells; format: cell-based; design: expressed in transfected cells; host or cells: murine mastocytoma P815 cells; conditions: murine mastocytoma P815 cells overexpressing hTDO2, overnight incubation, kynurenine absorbance at 480 nm
# Experimental: The assay was performed in 96-well flat bottom plates seeded with murine mastocytoma P815 cells overexpressing hTDO2 (prepared as described in Pilotte et al., PNAS, 2012, 109(7), 2497-2502), at a concentration of 5×10^4 cells/well in a final volume of 200 μL. To determine TDO or IDO activity, the cells were incubated overnight at 37° C. at 5% CO2 in IMDM (Invitrogen) supplemented with 2% FBS and 2% penicillin/streptomycin in the presence of the compounds of the present invention, at different concentrations.
# The plates were then centrifuged 5 min at 1000 rpm, and 100 μL of the supernatant were collected in a conical plate, 30 uL of TCA 30% were added and a further centrifugated at 3000×g for 10 minutes. 100 μL of the supernatant were collected in a flat bottomed plate and 100 μL of 2% (w/v) 4-(dimethylamino)-benzaldehyde in acetic acid and incubated for 5 min at room temperature. Kynurenine concentrations were determined by measuring the absorbance at 480 nm. A standard curve was made with pure kynurenine. The TDO activity was measured as described above using ten serial concentrations of the compounds of the present invention. Data were fitted using the Prism software (GraphPad Software, Inc.).
# TDO2 = target: T2, TDO2 (Mus musculus, UniProt P48776); assay: Pharmacodynamic assay for TDO2 in vivo activity: increase of blood tryptophan levels in mice; conditions: for increase of circulating Tryptophan: plasma after two hours, vs vehicle; for Tryptophan concentration in plasma (average ± standard error of the mean): two hours, LC-MS-MS
# T2 construct: from tissue; host or cells: live mice (whole animal; plasma tryptophan read-out)
# Experimental: The compounds of the present invention increase the amount of Tryptophan in mouse blood.
# Briefly, mice were treated with either a suspension of one of the compounds of the present invention in 0.5% HPMC K4M/0.25% Tween 20 at different doses (30, 60 and 100 mg/kg), or with a vehicle control (0.5% HPMC K4M/0.25% Tween 20), by the oral route by gavage (dosing volume 5 mL/kg, 10 mice per group). After two hours, blood was harvested, plasma was prepared and the amount of Tryptophan present was determined by LC-MS-MS (HPLC column Unison UK-Phenyl, 75×4.6, 3 μm, flow rate 0.8 mL/min, 8 minutes gradient from 95% water+0.1% formic acid/5% Acetonitrile+0.1% formic acid to 5% water+0.1% formic acid/95% Acetonitrile+0.1% formic acid, retention time 2.4 min; API4000 MS-MS system from AB Sciex, ESI+ mode, parent ion 205.1, daughter ion 146.1).
# T2 sequence (P48776 whole entry): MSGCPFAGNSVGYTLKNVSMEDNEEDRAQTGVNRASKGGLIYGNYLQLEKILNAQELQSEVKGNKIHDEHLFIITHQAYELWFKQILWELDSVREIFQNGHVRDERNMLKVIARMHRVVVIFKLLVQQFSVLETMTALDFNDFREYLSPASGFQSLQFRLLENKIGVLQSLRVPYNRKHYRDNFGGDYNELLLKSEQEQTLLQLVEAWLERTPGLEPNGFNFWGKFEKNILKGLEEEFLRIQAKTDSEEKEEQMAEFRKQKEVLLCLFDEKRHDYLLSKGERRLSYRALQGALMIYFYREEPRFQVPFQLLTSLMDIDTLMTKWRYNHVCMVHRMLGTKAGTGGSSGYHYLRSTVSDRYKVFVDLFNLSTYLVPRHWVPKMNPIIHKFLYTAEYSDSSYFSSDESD
# T1 sequence (P48775 whole entry): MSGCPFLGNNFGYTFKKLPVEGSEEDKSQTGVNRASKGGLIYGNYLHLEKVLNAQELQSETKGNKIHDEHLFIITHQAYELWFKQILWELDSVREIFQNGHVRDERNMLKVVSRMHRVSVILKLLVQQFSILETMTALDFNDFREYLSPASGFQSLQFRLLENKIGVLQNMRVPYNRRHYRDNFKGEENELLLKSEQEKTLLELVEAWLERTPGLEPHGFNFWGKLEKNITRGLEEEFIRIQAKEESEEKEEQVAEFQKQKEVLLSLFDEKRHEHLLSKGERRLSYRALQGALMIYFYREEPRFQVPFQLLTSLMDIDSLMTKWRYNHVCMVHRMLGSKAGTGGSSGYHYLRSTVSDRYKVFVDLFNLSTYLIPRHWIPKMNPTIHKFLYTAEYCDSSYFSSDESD
SMILES,IC50 (human TDO2 [1]),IC50 (human TDO2 [2]),melting point,also measured
"NC(=O)C(O)Cn1cc(-c2c[nH]c3cc(F)ccc23)cn1 (stereo not drawn) [Compound 37, 3-(4-(6-fluoro-1H-indol-3-yl)-1H-pyrazol-1-yl)-2-hydroxypropanamide]",1000 to 10000 nM,< 1000 nM,,
"OC1(Cn2cc(-c3c[nH]c4cc(F)ccc34)cn2)CCOCC1 [Compound 59, 4-((4-(6-fluoro-1H-indol-3-yl)-1H-pyrazol-1-yl)methyl)tetrahydro-2H-pyran-4-ol]",1000 to 10000 nM,1000 to 10000 nM,,
"CS(=O)(=O)CCn1cc(-c2c[nH]c3cc(F)c(F)cc23)cn1 [Compound 32, 5,6-difluoro-3-(1-(2-(methylsulfonyl)ethyl)-1H-pyrazol-4-yl)-1H-indole]",,,170.6 to 171.9 °C,
"NC(=O)[C@H]1CC[C@H](n2cc(-c3c[nH]c4cc(F)ccc34)cn2)CC1 [Compound 67, (1R,4R)-4-(4-(6-fluoro-1H-indol-3-yl)-1H-pyrazol-1-yl)cyclohexanecarboxamide]",,1000 to 10000 nM,,
"CS(=O)(=O)CCn1cc(-c2c[nH]c3cc(F)ccc23)cn1 [Compound 31, 6-fluoro-3-(1-(2-(methylsulfonyl)ethyl)-1H-pyrazol-4-yl)-1H-indole]",,,153.3 to 155.1 °C,
"O=S1(=O)CCC(Cn2cc(-c3c[nH]c4cc(F)ccc34)cn2)CC1 [Compound 60, 4-((4-(6-fluoro-1H-indol-3-yl)-1H-pyrazol-1-yl)methyl)tetrahydro-2H-thiopyran 1,1-dioxide]",,,193.1 to 194.1 °C,
"NC(=O)CCn1cc(-c2c[nH]c3cc(F)ccc23)cn1 [Compound 7, 3-(4-(6-fluoro-1H-indol-3-yl)-1H-pyrazol-1-yl)propanamide]",,,173.3 to 175 °C,
"CNCCn1cc(-c2c[nH]c3cc(F)ccc23)cn1 [Compound 24, 2-(4-(6-fluoro-1H-indol-3-yl)-1H-pyrazol-1-yl)-N-methylethanamine]",,,94.2 to 95.2 °C,
"CC(Cn1cc(-c2c[nH]c3cc(F)ccc23)cn1)C(N)=O (single isomer, unassigned) [Compound 35, 3-(4-(6-fluoro-1H-indol-3-yl)-1H-pyrazol-1-yl)-2-methylpropanamide]",,,184.5 to 185.5 °C,
"Fc1cc2[nH]cc(-c3cnn(CC4CCNCC4)c3)c2cc1F [Compound 44, 5,6-difluoro-3-(1-(piperidin-4-ylmethyl)-1H-pyrazol-4-yl)-1H-indole]",,,167.1 to 168.9 °C,

# Second part, led by results:
IC50 (human TDO2 [1]),IC50 (human TDO2 [2]),melting point,SMILES,also measured
1000 to 10000 nM,< 1000 nM,,"OC1CCC(n2cc(-c3c[nH]c4cc(F)ccc34)cn2)CC1 [Compound 68, (1R,4R)-4-(4-(6-fluoro-1H-indol-3-yl)-1H-pyrazol-1-yl)cyclohexanol]",
,,99.9 to 102.1 °C,"O=C(CO)N1CCC(n2cc(-c3c[nH]c4cc(F)ccc34)cn2)CC1 [Compound 84, 1-(4-(4-(6-fluoro-1H-indol-3-yl)-1H-pyrazol-1-yl)piperidin-1-yl)-2-hydroxyethanone]",
10000 to 100000 nM,1000 to 10000 nM,,"CS(=O)(=O)CCCC(=O)N1CCC(n2cc(-c3c[nH]c4cc(F)ccc34)cn2)CC1 [Compound 103, 1-(4-(4-(6-fluoro-1H-indol-3-yl)-1H-pyrazol-1-yl)piperidin-1-yl)-4-(methylsulfonyl)butan-1-one]",
,,240.1 to 241.8 °C,"Fc1ccc2c(-c3cnn(C4CCNCC4)c3)c[nH]c2c1 [Compound 78, 6-fluoro-3-(1-(piperidin-4-yl)-1H-pyrazol-4-yl)-1H-indole]",
,,226 to 228 °C,"O=C(O)CCC(=O)N1CCC(n2cc(-c3c[nH]c4cc(F)ccc34)cn2)CC1 [Compound 80, 4-(4-(4-(6-fluoro-1H-indol-3-yl)-1H-pyrazol-1-yl)piperidin-1-yl)-4-oxobutanoic acid]",
1000 to 10000 nM,< 1000 nM,,"Cc1nn(C)cc1-c1c[nH]c2cc(F)ccc12 [Compound 75, 3-(1,3-dimethyl-1H-pyrazol-4-yl)-6-fluoro-1H-indole]",
1000 to 10000 nM,< 1000 nM,,"CS(=O)(=O)CCC(=O)N1CCC(n2cc(-c3c[nH]c4cc(F)ccc34)cn2)CC1 [Compound 105, 1-(4-(4-(6-fluoro-1H-indol-3-yl)-1H-pyrazol-1-yl)piperidin-1-yl)-3-(methylsulfonyl)propan-1-one]",
,,193.7 to 196.1 °C,"CN(C)CC(=O)N1CCC(n2cc(-c3c[nH]c4cc(F)ccc34)cn2)CC1 [Compound 83, 2-(dimethylamino)-1-(4-(4-(6-fluoro-1H-indol-3-yl)-1H-pyrazol-1-yl)piperidin-1-yl)ethanone]",
,,223 to 224.6 °C,"CN(C)C(=O)N1CCC(n2cc(-c3c[nH]c4cc(F)ccc34)cn2)CC1 [Compound 90, 4-(4-(6-fluoro-1H-indol-3-yl)-1H-pyrazol-1-yl)-N,N-dimethylpiperidine-1-carboxamide]",
,,190.7 to 191.4 °C,"O=C(C1CC1)N1CCC(n2cc(-c3c[nH]c4cc(F)ccc34)cn2)CC1 [Compound 88, cyclopropyl(4-(4-(6-fluoro-1H-indol-3-yl)-1H-pyrazol-1-yl)piperidin-1-yl)methanone]",
1000 to 10000 nM,< 1000 nM,,"O=C(CCO)N1CCC(n2cc(-c3c[nH]c4cc(F)ccc34)cn2)CC1 [Compound 104, 1-(4-(4-(6-fluoro-1H-indol-3-yl)-1H-pyrazol-1-yl)piperidin-1-yl)-3-hydroxypropan-1-one]",
,,210.2 to 211 °C,"CC(C)C(=O)N1CCC(n2cc(-c3c[nH]c4cc(F)ccc34)cn2)CC1 [Compound 86, 1-(4-(4-(6-fluoro-1H-indol-3-yl)-1H-pyrazol-1-yl)piperidin-1-yl)-2-methylpropan-1-one]",
,,183.2 to 184.5 °C,"CC(=O)N1CCC(n2cc(-c3c[nH]c4cc(F)ccc34)cn2)CC1 [Compound 89, 1-(4-(4-(6-fluoro-1H-indol-3-yl)-1H-pyrazol-1-yl)piperidin-1-yl)ethanone]","increase of circulating Tryptophan (TDO2; 30 mg/kg oral gavage, p<0.05): 26%; Tryptophan concentration in plasma (average ± standard error of the mean) (TDO2; 30 mg/kg oral gavage): 25126 ng/mL; Tryptophan concentration in plasma (average ± standard error of the mean) (TDO2; 60 mg/kg oral gavage): 28452 ng/mL; increase of circulating Tryptophan (TDO2; 100 mg/kg oral gavage, p<0.001): 43%; Tryptophan concentration in plasma (average ± standard error of the mean) (TDO2; 100 mg/kg oral gavage): 28374 ng/mL; increase of circulating Tryptophan (TDO2; printed 30 mg/kg (second mention, p<0.001), oral gavage): 43%"
10000 to 100000 nM,1000 to 10000 nM,,"Cn1ncc(-c2c[nH]c3ccccc23)c1C(F)(F)F [Compound 77, 3-(1-methyl-5-(trifluoromethyl)-1H-pyrazol-4-yl)-1H-indole]",
,,231 to 232 °C,"CC(C)(C)C(=O)N1CCC(n2cc(-c3c[nH]c4cc(F)ccc34)cn2)CC1 [Compound 87, 1-(4-(4-(6-fluoro-1H-indol-3-yl)-1H-pyrazol-1-yl)piperidin-1-yl)-2,2-dimethylpropan-1-one]",

# From US20160263087A1, “NOVEL 4-(INDOL-3-YL)-PYRAZOLE DERIVATIVES, PHARMACEUTICAL COMPOSITIONS AND METHODS FOR USE” (ITEOS THERAPEUTICS, priority 2013, published 2016)
